Experimental data taken from patent US5084449A, “Anti-bacterial compositions comprising a substituted bis-(4-aminophenyl)-sulfone and a dihydro-folic acid reductase” (Dr. Karl Thomae GmbH, priority 1984, dated 1992).

Tested on: 7,8-dihydropteroic acid-synthetase
Assay: inhibiting effect on 7,8-dihydropteroic acid synthesis in cell-free enzyme extract of plasmodia (HPLC)
Format: biochemical
Conditions: concentration giving 50% reduction of 7,8-dihydropteroic acid synthesis; cell-free enzyme extract of Plasmodium berghei; incubation 4 hours; HPLC/UV; read-out: i50
Method: M=4'-Amino-2-methyl-4-propylamino-diphenylsulfone were tested for their biological activity in cell-free enzyme extract of Plasmodiumberghei as follows.
Plasmodia are isolated from mouse blood infected with Plasmodium berghei in accordance with the following reference (Heidrich, H. -G. et al., Z. Parasitenkd. 59: 151 (1979). The plasmodia were opened by ultrasound. Proteins with […] acid synthetase activity are concentrated by gel filtration.
The inhibiting effect on 7,8-dihydropteroic acid synthesis of plasmodia is determined as follows:
Under optimum reaction conditions, i.e. Vmax for the reaction which is to be inhibited, the concentration of inhibitor in the new compounds resulting in a 50% reduction in the enzyme synthesis performance is determined. For this purpose the quantity of 7,8-dihydropteroic acid synthesised from the enzyme extract is determined by means of high performance liquid chromatography (HPLC) using a UV detector after an incubation period of 4 hours. It was established that the synthesis of 7,8-dihydropteroic acid proceeded in a linear manner during this period.
The i50 values obtained by this method for a selection of the compounds claimed and those of the comparison preparations bis (4-aminophenyl)sulfone (Dapsone®, DDS) and N^1 -(5,6-dimethoxy-4-pyrimidinyl)-sulfanilamide (Fanasil®) are given in the following Table: […]

Structure (SMILES)	IC50
CNc1ccc(S(=O)(=O)c2ccc(N)cc2)c(C)c1 [Substance L, 4'-Amino-2-methyl-4-methylamino-diphenylsulfone]	2.94 µM
CCNc1ccc(S(=O)(=O)c2ccc(N)cc2)c(Cl)c1 [Substance A, 4-Ethylamino-4'-amino-2-chloro-diphenylsulfone]	2.1 µM
CC(O)c1cc(N)ccc1S(=O)(=O)c1ccc(N)cc1 (stereo not shown) [Substance F, 4,4'-Diamino-2-(1-hydroxyethyl)-diphenylsulfone]	10.4 µM
CCNc1ccc(S(=O)(=O)c2ccc(N)cc2)c(C)c1 [Substance C, 4-Ethylamino-4'-amino-2-methyl-diphenylsulfone]	2.62 µM
CN(C)c1cc(N)ccc1S(=O)(=O)c1ccc(N)cc1 [Substance G, 4,4'-Diamino-2-(N,N-dimethylamino)-diphenylsulfone]	12.9 µM
CCNc1ccc(S(=O)(=O)c2ccc(N)cc2)c(C(F)(F)F)c1 [Substance D, 4-Ethylamino-4'-amino-2-trifluoromethyl-diphenyl-sulfone]	5.86 µM
CNc1cc(N)ccc1S(=O)(=O)c1ccc(N)cc1 [Substance H, 4,4'-Diamino-2-(N-methylamino)-diphenylsulfone]	4.1 µM
CCCNc1ccc(S(=O)(=O)c2ccc(N)cc2)c(C)c1 [Substance M, 4'-Amino-2-methyl-4-propylamino-diphenylsulfone]	2.44 µM
Nc1ccc(S(=O)(=O)c2ccc(N)cc2CO)cc1 [Substance E, 4,4'-Diamino-2-hydroxymethyl-diphenylsulfone]	4.9 µM
Nc1ccc(S(=O)(=O)c2ccc(N)cc2)cc1 [Dapsone ®, bis (4-aminophenyl)sulfone, reference compound]	12.4 µM
CC(=O)c1cc(N)ccc1S(=O)(=O)c1ccc(N)cc1 [Substance K, 4,4'-Diamino-2-methylcarbonyl-diphenylsulfone]	12.9 µM
CC(C)Nc1ccc(S(=O)(=O)c2ccc(N)cc2)c(Cl)c1 [Substance B, 4'-Amino-2-chloro-4-isopropylamino-diphenylsulfone]	2.67 µM
N#Cc1cc(N)ccc1S(=O)(=O)c1ccc(N)cc1 [Substance I, 4,4'-Diamino-2-cyano-diphenylsulfone]	12.5 µM
COc1ncnc(NS(=O)(=O)c2ccc(N)cc2)c1OC [Fanasil ®, N^1-(5,6-dimethoxy-4-pyrimidinyl)-sulfanilamide, reference compound]	200 µM

Tested on: not listed separately
Assay: methemoglobin formation after oral administration to cats
Format: in vivo
Conditions: 200 mg/kg by oral route
From the text: Moreover, in contrast to Dapsone®, the new compounds are well tolerated and in particular show a very low methemoglobin formulation.

Structure (SMILES)	methemoglobin formulation
CCCNc1ccc(S(=O)(=O)c2ccc(N)cc2)c(C)c1 [Substance M, 4'-Amino-2-methyl-4-propylamino-diphenylsulfone]	no methemoglobin formulation is detected
N#Cc1cc(N)ccc1S(=O)(=O)c1ccc(N)cc1 [Substance I, 4,4'-Diamino-2-cyano-diphenylsulfone]	no methemoglobin formulation is detected
